These results are taken from patent US4450269A, “Mono-5-substituted-3-chloro-4H-1,2,6-thiadiazin-4-one antifungal agents” (FMC Corporation, priority 1980, dated 1984).

In general, inhibition refers to the share of the control response that was lost under treatment.

The test system of this assay is Sclerotinia fructicola. Kind of assay: Mycelial growth test. The following applies: Sclerotinia, 72 h, SF, read-out: Percent Fungus Growth Inhibition. The format is cell-based. From the text:
| SF = Sclerotinia fructicola

As to `O=c1c(Cl)nsnc1Oc1ccccc1Br` [Compound 34, 3-chloro-5-(2-bromophenoxy)-4H-1,2,6,-thiadiazin-4-one], the inhibition at 5 ppm was determined as 33%, the inhibition at 10 ppm worked out at 72%, the inhibition at 20 ppm is 100% and the inhibition at 40 ppm turned out to be 100%.

As to `O=c1c(Cl)nsnc1Oc1ccc(O)cc1` [Compound 35, 3-chloro-5-(4-hydroxyphenoxy)-4H-1,2,6-thiadiazin-4-one], the inhibition at 5 ppm amounted to 8%, the inhibition at 10 ppm is 27%, the inhibition at 20 ppm stood at 69% and the inhibition at 40 ppm worked out at 100%.

Turning to `O=C(Nc1ccccc1)Oc1ccc(Oc2nsnc(Cl)c2=O)cc1` [Compound 37, 3-chloro-5-[4-(phenylaminocarbonyloxy)phenoxy]-4H-1,2,6,-thiadiazin-4-one], the inhibition at 5 ppm amounted to 30%, the inhibition at 10 ppm turned out to be 59%, the inhibition at 20 ppm is 56% and the inhibition at 40 ppm turned out to be 59%.

Turning to `O=C(OCc1ccccc1)Oc1ccc(Oc2nsnc(Cl)c2=O)cc1` [Compound 38, 3-chloro-5-[4-(phenylmethoxycarbonyloxy)phenoxyl]-4H-1,2,6-thiadiazin-4-one], the inhibition at 5 ppm was found to be 0%, the inhibition at 10 ppm stood at 0%, the inhibition at 20 ppm stood at 0% and the inhibition at 40 ppm turned out to be 8%.

Consider `CSc1ccc(Oc2nsnc(Cl)c2=O)cc1` [Compound 39, 3-chloro-5-[(4-methylthio)phenoxy]-4H-1,2,6,-thiadiazin-4-one], for which the inhibition at 5 ppm was determined as 41%, the inhibition at 10 ppm turned out to be 48%, the inhibition at 20 ppm stood at 63% and the inhibition at 40 ppm came out at 85%.

Regarding `C[S+]([O-])c1ccc(Oc2nsnc(Cl)c2=O)cc1` (centres unmarked) [Compound 40, 3-chloro-5-[(4-methylsulfinyl)phenoxy]-4H-1,2,6,-thiadiazin-4-one], the inhibition at 5 ppm was determined as 4%, the inhibition at 10 ppm was 59%, the inhibition at 20 ppm was 89% and the inhibition at 40 ppm was determined as 100%.

Turning to `CS(=O)(=O)c1ccc(Oc2nsnc(Cl)c2=O)cc1` [Compound 41, 3-chloro-5-[(4-methylsulfonyl)phenoxy]-4H--1,2,6-thiadiazin-4-one], the inhibition at 5 ppm came to 56%, the inhibition at 10 ppm stood at 78%, the inhibition at 20 ppm came to 100% and the inhibition at 40 ppm stood at 100%.

For `CC(=O)Nc1cccc(Oc2nsnc(Cl)c2=O)c1` [Compound 42, 3-[(3-N--acetylamino)-phenoxy]-5-chloro-4H--1,2,6-thiadiazin-4-one], the inhibition at 5 ppm came out at 24%, the inhibition at 10 ppm worked out at 35%, the inhibition at 20 ppm worked out at 56% and the inhibition at 40 ppm was 100%.

Turning to `CC(=O)Nc1ccccc1Oc1nsnc(Cl)c1=O` [Compound 43, 3-[(2-acetylamino)-phenoxy]-5-chloro-4H--1,2,6-thiadiazin-4-one], the inhibition at 5 ppm was 0%, the inhibition at 10 ppm is 0%, the inhibition at 20 ppm was found to be 17% and the inhibition at 40 ppm is 22%.

As to `O=c1c(Cl)nsnc1Oc1cccc(C(F)(F)F)c1` [Compound 44, 3-chloro-5-[(3-trifluoromethyl)phenoxy]-4H--1,2,6-thiadiazin-4-one], the inhibition at 5 ppm amounted to 76%, the inhibition at 10 ppm stood at 100%, the inhibition at 20 ppm was found to be 100% and the inhibition at 40 ppm worked out at 100%.

With `O=C(O)Cc1ccccc1Oc1nsnc(Cl)c1=O` [Compound 45, 3-(2-carboxymethylphenoxy)-5-chloro-4H--1,2,6-thiadiazin-4-one], the inhibition at 5 ppm worked out at 9%, the inhibition at 10 ppm came to 3%, the inhibition at 20 ppm turned out to be 38% and the inhibition at 40 ppm worked out at 59%.

With `N#CCc1ccc(Oc2nsnc(Cl)c2=O)cc1` [Compound 46, 3-chloro-5-[(4-cyanomethyl)-phenoxy]4H--1,2,6-thiadiazin-4-one], the inhibition at 5 ppm was 19%, the inhibition at 10 ppm came to 76%, the inhibition at 20 ppm amounted to 81% and the inhibition at 40 ppm is 100%.

On to `CC(=O)c1ccc(Oc2nsnc(Cl)c2=O)cc1` [Compound 47, 3-(4-acetylphenoxy)-5-chloro-4H--1,2,6-thiadiazin-4-one], for which the inhibition at 5 ppm worked out at 82%, the inhibition at 10 ppm worked out at 82%, the inhibition at 20 ppm was 100% and the inhibition at 40 ppm was determined as 100%.

As to `CC(=O)c1cccc(Oc2nsnc(Cl)c2=O)c1` [Compound 48, 3-(3-acetylphenoxy)-5-chloro-4H--1,2,6-thiadiazin-4-one], the inhibition at 5 ppm was found to be 82%, the inhibition at 10 ppm stood at 88%, the inhibition at 20 ppm came out at 94% and the inhibition at 40 ppm turned out to be 100%.

Turning to `CC(=O)c1ccccc1Oc1nsnc(Cl)c1=O` [Compound 49, 3-(2-acetylphenoxy)-5-chloro-4H--1,2,6-thiadiazin-4-one], the inhibition at 5 ppm is 14%, the inhibition at 10 ppm is 33%, the inhibition at 20 ppm came to 75% and the inhibition at 40 ppm stood at 100%.

Turning to `O=C(O)c1ccc(Oc2nsnc(Cl)c2=O)cc1` [Compound 50, 3-(4-carboxyphenoxy)-5-chloro-4H--1,2,6-thiadiazin-4-one], the inhibition at 5 ppm came out at 59%, the inhibition at 10 ppm is 47%, the inhibition at 20 ppm amounted to 94% and the inhibition at 40 ppm worked out at 100%.

Turning to `COc1ccc(Cl)c(Oc2nsnc(Cl)c2=O)c1` [Compound 51, 3-chloro-5-[(2-chloro-5-methoxy)phenoxy]-4H--1,2,6-thiadiazin-4-one], the inhibition at 5 ppm is 69%, the inhibition at 10 ppm worked out at 92%, the inhibition at 20 ppm came out at 92% and the inhibition at 40 ppm was 100%.

Take `COc1cc(Cl)cc(Oc2nsnc(Cl)c2=O)c1` [Compound 52, 3-chloro-5-[(3-chloro-5-methoxy)phenoxy]-4H--1,2,6-thiadiazin-4-one]: the inhibition at 5 ppm is 65%, the inhibition at 10 ppm turned out to be 81%, the inhibition at 20 ppm was 100% and the inhibition at 40 ppm turned out to be 100%.

`O=c1c(Cl)nsnc1Oc1ccc([N+](=O)[O-])cc1Cl` [Compound 53, 3-chloro-5-(2-chloro-4-nitrophenoxy)-4H--1,2,6-thiadiazin-4-one]: the inhibition at 5 ppm amounted to 63%, the inhibition at 10 ppm was determined as 89%, the inhibition at 20 ppm came to 100% and the inhibition at 40 ppm worked out at 100%.

Consider `Cc1cc(Oc2nsnc(Cl)c2=O)ccc1Cl` [Compound 54, 3-chloro-5-(4-chloro-3-methylphenoxy)-4H--1,2,6-thiadiazin-4-one], for which the inhibition at 5 ppm came to 49%, the inhibition at 10 ppm was found to be 50%, the inhibition at 20 ppm was determined as 53% and the inhibition at 40 ppm is 64%.

`Cc1cc(Cl)ccc1Oc1nsnc(Cl)c1=O` [Compound 55, 3-chloro-5-(4-chloro-2-methylphenoxy)-4H--1,2,6-thiadiazin-4-one]: the inhibition at 5 ppm amounted to 42%, the inhibition at 10 ppm was determined as 50%, the inhibition at 20 ppm came out at 56% and the inhibition at 40 ppm was 61%.

`Cc1ccc(Cl)c(Oc2nsnc(Cl)c2=O)c1` [Compound 56, 3-chloro-5-[(2-chloro-5-methyl)phenoxy]-4H--1,2,6-thiadiazin-4-one]: the inhibition at 5 ppm came to 69%, the inhibition at 10 ppm is 78%, the inhibition at 20 ppm is 100% and the inhibition at 40 ppm was determined as 100%.

Regarding `Cc1ccc(Oc2nsnc(Cl)c2=O)c(Br)c1` [Compound 57, 3-[(2-bromo-4-methyl)-phenoxy]-5-chloro-4H--1,2,6-thiadiazin-4-one], the inhibition at 5 ppm is 68%, the inhibition at 10 ppm turned out to be 82%, the inhibition at 20 ppm came out at 100% and the inhibition at 40 ppm was found to be 100%.
